From patent US20080311076A1, “Morpholinylanilinoquinazoline Derivatives For Use As Antiviral Agents” (ARROW THERAPEUTICS LIMITED, priority 2004, published 2008)

System: HCV replicon cells Huh 9B
Assay: HCV replicon assay (luciferase) in Huh 9B replicon cells
Assay type: cell-based
Settings: Hepatitis C virus; concentration reducing replicon level (luciferase activity) by 50% vs untreated cell control; 72 h incubation
Procedure: HCV replicon cells Huh 9B (ReBlikon), containing the firefly luciferase—ubiquitin—neomycin phosphotransferase fusion protein and EMCV-IRES driven HCV polyprotein with cell culture adaptive mutations.
Cells were cultured at 37° C. in a 5% CO2 environment and split twice a week on seeding at 2×10E6 cells/flask on day 1 and 1×10E6 3 days later. Some 0.25 mg/ml G418 was added to the culture medium (125 ul per 25 ml) but not the assay medium.
The culture medium consisted of DMEM with […] glucose and glutamax (Gibco 61965-026) supplemented with 1× non-essential amino acids, penicillin (100 IU/ml)/streptomycin (100 μg/ml), FCS (10%, 50 ml) and 1 mg/ml G418 (Invitrogen cat no 10131-027) & 10% foetal calf serum.
A flask of cells was trypsinised and a cell count carried out. Cells were diluted to 100,000 cells/ml and 100 μl of this used to seed one opaque white 96-well plate (for the replicon assay) and one flat-bottomed clear plate (for the tox assay) for every seven compounds to be tested for IC50. Wells G12 and H12 were left empty in the clear plate as the blank. Plates were then incubated at 37° C. in a 5% CO2 environment for 24 h.
On the following day compound dilutions are made up in medium at twice their desired final concentration in a clear round bottomed plate. All dilutions have a final DMSO concentration of 1%.
Once the dilution plate had been made up, controls and compounds were transferred to the assay plate (containing the cells) at 100 μl/well in duplicate plates.
Exception: in the white (replicon) plate, no compound was added to wells A1 and A2 and 100 μl of 1% DMSO was added to these instead. In the clear (Tox) plate, wells E12 & F12 only contained the DMSO control. Plates were then incubated at 37° C. with 5% CO2 for 72 h.
At the end of the incubation time, the cells in the white plate were harvested by washing with 200 μl/well of warm (37° C.) PBS and lysed with 20 μl cell culture lysis buffer (Promega). After 5 min incubation @ RT, luciferin solution was added to the luciferase assay buffer (LARB at 200 μl per 10 ml LARB. The M injector of the microplate luminometer (Lmax, Molecular Devices) was primed with […] injections. Plate were inserted into the luminometer and 100 μl luciferase assay reagent was added by the injector on the luminometer. The signal was measured using a 1 second delay followed by a 4 second measurement programme. The IC50, the concentration of the drug required for reducing the replicon level by 50% in relation to the untreated cell control value, can be calculated from the plot of the percentage reduction of the luciferase activity vs. drug concentration.

Compound | IC50 [µM]
CC(C)CCN(c1ccc(N2CCOCC2)cc1)c1ncnc2ccc(I)cc12 [Example 47, (6-Iodo-quinazolin-4-yl)-(3-methyl-butyl)-(4-morpholin-4-yl-phenyl)-amine] | < 5
COc1cccc(CNC(=O)c2ccc3ncnc(Nc4ccc(N5CCOCC5)cc4)c3c2)c1 [Example 28, 4-(4-Morpholin-4-yl-phenylamino)-quinazoline-6-carboxylic acid 3-methoxy-benzylamide] | < 5
CC(=O)Nc1ccc(-c2ccc3ncnc(Nc4ccc(N5CCOCC5)cc4)c3c2)cc1 [Example 35, N-{4-[4-(4-Morpholin 4-yl-phenylamino)-quinazolin-6-yl]-phenyl}-acetamide] | < 1
c1ccc(COc2ccccc2-c2ccc3ncnc(Nc4ccc(N5CCOCC5)cc4)c3c2)cc1 [Example 50, [6-(2-Benzyloxy-phenyl)-quinazolin-4-yl]-(4-morpholin-4-yl-phenyl)-amine] | < 5
Cc1cc(N2CCOCC2)ccc1Nc1ncnc2ccc(-c3cccs3)cc12 [Example 43, (2-Methyl-4-morpholin-4-yl-phenyl)-(6-thiophen-2-yl-quinazolin-4-yl)-amine] | < 1
c1ccc(COc2ccc(-c3ccc4ncnc(Nc5ccc(N6CCOCC6)cc5)c4c3)cc2)cc1 [Example 51, [6-(4-Benzyloxy-phenyl)-quinazolin-4-yl]-(4-morpholin-4-yl-phenyl)-amine] | < 5
Cc1cc(Nc2ncnc3ccc(-c4cccs4)cc23)ccc1N1CCOCC1 [Example 44, (3-Methyl-4-morpholin-4-yl-phenyl)-(6-thiophen-2-yl-quinazolin-4-yl)-amine] | < 1
c1coc(-c2ccc3ncnc(Nc4ccc(N5CCOCC5)cc4)c3c2)c1 [Example 5, (6-Furan-2-yl-quinazolin-4-yl)-(4-morpholin-4-yl-phenyl)-amine] | < 1
CN1CCN(Cc2ccc(-c3ccc4ncnc(Nc5ccc(N6CCOCC6)cc5)c4c3)o2)CC1 [Example 11, {6-[5-(4-Methyl-piperazin-1-ylmethyl)-furan-2-yl]-quinazolin-4-yl}-(4-morpholin-4-yl-phenyl)-amine] | < 5
